What all share (assay): growth of human tumour cells (NCI), 48 h
Assay [1] has as its system A549.
In assay [2] the test system is CAKI-1.
In assay [3] the test system is DLD-1.
Assay [4] deals with DU-145.
In assay [5] the test system is EKVX.
The test system of assay [6] is HCT-15.
Assay [7] concerns MDA-MB-435.
The test system of assay [8] is MOLT-4.
For assay [9], the system named is NCI-H226.
For assay [10], the system named is NCI-H23.
Assay [11] concerns NCI-H460.
For assay [12], the system named is OVCAR-8.
In assay [13] the test system is SF-539.
Assay [14] relates to SK-MEL-28.
In assay [15] the test system is SN12C.
Assay [16] relates to SNB-19.
Assay [17] concerns SNB-75.
For assay [18], the system named is SR.
For assay [19], the system named is SW-620.
Assay [20] relates to UACC-62.

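These data come from cells grown in 96-well plates and exposed to compound for 48 hours at five concentrations. GI50 is the concentration that inhibits growth by half.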 Activity calls are given as the source filed them. Rule as the data show it: active = GI50 up to about 1.1 µM and inactive = higher.

Consider `Nc1ncnc2c1ncn2C1CC(O)C(CO)O1` (stereo not given), for which the GI50 is > 100 µM (inactive) in assay [1]; > 100 µM (inactive) in assay [2]; > 100 µM (inactive) in assay [3]; > 100 µM (inactive) in assay [4]; > 100 µM (inactive) in [5]; greater than 100 µM in [6]. Also, the GI50 in [7], in [8], in [9], in [10], in [11] and in [12] was > 100 µM (inactive) each time. The GI50 in [13], in [14], in assay [15], in assay [16], in [17] and in assay [18] was > 100 µM (inactive) throughout. For the same molecule, the GI50 in assay [19] and in assay [20] was > 100 µM (inactive) throughout.
